This note sets out measurements from patent publication EP0339176A1, “Suppository containing a non-steroidal anti-inflammatory medicament” (AMERICAN CYANAMID COMPANY, priority 1988, dated 1989).

Each structure is given as a SMILES string.

The nature of data set [1]: Clinical bioavailability study of Fenbufen suppositories. It counts as in vivo. The settings on record: rectal. How it is done: Rectal administration of non-steroidal anti-inflammatory drugs can be clinically advantageous in some circumstances, in that it can prolong the effect of the drug. For example, when certain non-steroidal drugs are given rectally to a patient immediately prior to retiring for the night, sufficient blood levels of the drug are still available some 6-7 hours later to prevent morning stiffness. However, in the case of Fenbufen, the high level required for the nocturnal dose (450-600 mg) makes it difficult to deliver this drug successfully from the rectum. […] Accordingly, Fenbufen-containing suppository formulations for rectal administration have not been available, which is a disadvantage when Fenbufen would otherwise be the drug of choice for the patient.

The nature of data set [2]: Solubility of BPAA salts in water relative to the free acid. Particulars: salt versus free acid.

On to `O=C(O)CCC(=O)c1ccc(-c2ccccc2)cc1` [Fenbufen, 4-(biphenyl-4-yl)-4-oxo-butyric acid], for which, in data set [1], the “bioavailability of the active ingredient from suppositories” value is “low bioavailability”.
`O=C(O)Cc1ccc(-c2ccccc2)cc1` [sodium]: the “increase of the solubility of (1,1′-biphenyl)-4-acetic acid in water” value in data set [2] was 8-9 fold.
